{
  "source": "patent US9290740B2",
  "about": "“Use of basic fibroblast growth factor in the de-differentiation of animal connective tissue cells” (Worcester Polytechnic Institute, priority 2008, dated 2016)",
  "key": {"[1]": {"system": "adult human dermal fibroblasts (CRL-2352)", "assay": "Effect of FGF2 and oxygen level on proliferation and in vitro lifespan (population doublings to senescence)", "format": "cell-based", "conditions": "FGF2 10 ng/ml"}, "[2]": {"system": "Oct4, Sox2, Nanog, Rex1, Lin28, Klf4, TERT mRNA in adult human fibroblasts", "assay": "RT-PCR and qRT-PCR of stem cell gene transcripts", "format": "cell-based", "protocol": "RNA was extracted using TRIzol® reagent (Invitrogen) according to the manufacturer's protocol and quantified by spectrophotometry. 2 μg of RNA was subjected to DNase I digestion, followed by a reverse transcription using a QuantiTech® Reverse transcription kit (Qiagen) with a mixture of oligo-dT and random hexamers primers. 50 ng/well of cDNA was used as template in qPCR reactions with oligonucleotides specific for the genes of interest (Table 1 of Supplementary Information). A non-template control (NTC) and an RNA sample without RT for each sample were used to control for potential contaminating DNA. All qPCR reactions were performed in triplicate with the resultant values being combined into an average threshold cycle (CT). The efficiency of qPCR was calculated from the slope of a relative standard curve using GAPDH primers. Relative quantification was determined using a 7500 Real Time PCR system (Applied Biosystems) measuring SYBR green fluorescence (PerfeCTa™ SYBR Green FastMix, Low ROX (Quanta Biosciences)). Fold differences are calculated using the ΔΔCT method with the formula 2^−ΔΔCt. (Liss, B., “Improved quantitative real-time RT-PCR for expression profiling of individual cells”, Nucleic Acids Research 30(17), e89, 2002). Expression profiles for the mRNA transcripts are shown as fold differences in comparison to mRNA levels in control (untreated) fibroblast cells.\nTotal RNA was isolated using Trizol (Invitrogen) following the manufacturer's protocol. Four μg of total RNA was used to perform first strand cDNA synthesis using Superscript (Invitrogen). For RT-PCR, 0.5 μl of the first strand cDNA was used as template. PCR was performed in Mg^2+ free PCR buffer (TaKara) supplemented with 1.5 mM MgCl2, 200 μM each of dNTPs, 25 pmoles each of forward and reverse primers and 0.5 U of TaKara ExTaq polymerase per reaction. PCR cycling was done as follows: Initial denaturation at 95° C. for 2 minutes followed by 35 cycles of denaturation at 95° C. for 15 seconds; annealing at primer-specific annealing temperature for 1 minute; and extension at 72° C. for 1:30 minutes. Final extension was done at 72° C. for 10 minutes and the samples held at 4° C. until use. Amplification products were resolved on 2% agarose gels containing 0.5 μg/ml ethidium bromide in 1×TAE buffer and photographed using a Kodak […] Image Station."}, "[3]": {"conditions": "reduced oxygen culture plus FGF2"}},
  "data": [
    {"substance": "FGF2: human recombinant FGF2 (Invitrogen, Chemicon or Protide), basic fibroblast growth factor", "values": [
      {"measurement": "effect on adult fibroblast proliferation at 10 ng/ml", "setting": "[1]", "value": "halted adult fibroblast proliferation"},
      {"measurement": "transcription of Oct4, Nanog and Klf4 (RT-PCR)", "setting": "[2]; 5% oxygen, FGF2 supplemented, day 7", "value": "increased"},
      {"measurement": "transcription of Sox2, Rex1 and Lin28 (RT-PCR)", "setting": "[2]; 5% oxygen, day 7", "value": "significant transcriptional dependence on FGF2"},
      {"measurement": "Lin28 mRNA levels (qRT-PCR)", "setting": "[2]; [3]", "value": "further increased"},
      {"measurement": "Rex1 and TERT mRNA (qRT-PCR)", "setting": "[2]; [3]", "value": "not further affected"}
    ]}
  ]
}
